From PMC6321509, “Search of Allosteric Inhibitors and Associated Proteins of an AKT-like Kinase from Trypanosoma cruzi” (International Journal of Molecular Sciences, 2018)
Where two headings read alike, the source gives them in different places.

Experiments:
Format in all cases: cell-based
in vitro = details: MTT, read-out: LC50 lethal concentration on human monocyte-derived macrophages (hMDMD)
Description: The cytotoxicity of the compounds was evaluated according to the ability to kill macrophages derived from human monocytes (hMDM) by the […] method, following the procedures performed by Pastrana Restrepo et al.. The hMDM were obtained from 50 mL of desfribrinated whole blood from healthy donors. These samples were mixed in a 1:1 ratio with Dulbecco PBS free of calcium and magnesium (DPBS). The mixture was centrifuged in a Ficoll Hypaque 1077 density gradient in a 1:3 ratio (blood–Ficoll) for separation of mononuclear cells, centrifuging at 2000 rpm for 20 min at 37 °C. The mononuclear cell layer was separated and these cells were washed twice with a solution of DPBS centrifuged at 13000 rpm for 10 min. After the last wash, the cells were resuspended in an RPMI medium with 10% autologous serum at a concentration of 0.3 × 10^6 cells/mL. Then, 1 mL of cells was placed in each well of 24-well culture dishes and incubated at 37 °C, 5% CO2 for 72 h to allow the differentiation of monocytes to macrophages. For the MTT test, the hMDM were adjusted to a concentration of 0.5 × 10^6 cells/mL in the RPMI medium supplemented with 10% FBS, and the concentration of the compound in the culture was adjusted (four serial dilutions starting at 200 μM). Amphotericin B and Doxorubicin were used as controls for the determination of cytotoxicity. Each experiment was performed in triplicate.
In this case, the in vitro cytotoxicity was defined by the decrease in the cell viability and growth, obtained from the OD for each experimental condition, using the following formula: (%) viability inhibition = […], where the OD of untreated cells corresponds to 100% of the viability. Growth inhibition percentage data obtained for each experimental condition were used to calculate the half lethal concentration (LC50) by the Probit analysis.
The cytotoxicity of each compound was rated according to its LC50. […]

Leishmania braziliensis = test: In vitro experiments on Leishmania braziliensis; details: mean ± SD
T. cruzi amastigote = test: In vitro antitrypanosomal activity, amastigotes in U937 macrophages (β-galactosidase Tulahuen strain); details: Trypanosoma cruzi, U-937; infected U937 macrophages, 72 h; mean ± SD; read-out: IC50 inhibitory concentration of T. cruzi amastigote
Description: A human promonocitic U937 line was cultivated in RPMI-1640 medium with 10% fetal bovine serum (FBS) at a concentration of 0.25 × 10^6 cells/mL; the cells were transformed into macrophages by being incubated with phorbol 12-myristate 13-acetate (PMA) at 0.1 µg/mL. To adhere the cells, 0.1 mL of cells was added in 96-well dishes. Adherence was carried out for 72 h, and then epimastigote were added in the stationary phase of the Tulahuen strain producing β-galactosidase, at 5 parasite/cellU937 concentrations for 24 h at 37 °C with 5% CO2. To calculate the IC50 (Table 2), different concentrations of the compounds to evaluate and Benznidazole were added at an initial concentration of 20 µg/mL and 6 serial dilutions were made as a control of the effectiveness of the experiment, in addition to the control of the viability of the parasites (cells without drug treatment), from the blank of the culture medium (medium without cells), in duplicate. The cells were incubated for 72 h at 37 °C with 5% of CO2. […] The colorimetric reaction was read at 570 nm and optical densities (OD) for each experimental condition were registered. […] The half inhibitory concentration (IC50) was calculated by the Probit method using the % of inhibition for each concentration. […]

SMILES | CC50 (in vitro; mean ± SD) [µM] | IC50 (Leishmania braziliensis) [µM] | IC50 (T. cruzi amastigote) [µM] | CC50 (in vitro) [µg/mL]
C[C@@H]1[C@H](O)[C@@H](C)/C=C/C=C/C=C/C=C/C=C/C=C/C=C/[C@H](O[C@@H]2O[C@H](C)[C@@H](O)[C@H](N)[C@@H]2O)C[C@@H]2O[C@](O)(C[C@@H](O)C[C@@H](O)[C@H](O)CC[C@@H](O)C[C@@H](O)CC(=O)O[C@H]1C)C[C@H](O)[C@H]2C(=O)O [Amphotericin B] | 49.8 ± 6.82 | 0.3 ± 0.07 |  | 
O=C(Cn1ccnc1[N+](=O)[O-])NCc1ccccc1 [Benznidazole] |  |  | 16.6 ± 4 | > 200
COc1cccc2c1C(=O)c1c(O)c3c(c(O)c1C2=O)C[C@@](O)(C(=O)CO)C[C@@H]3O[C@H]1C[C@H](N)[C@H](O)[C@H](C)O1 [Doxorrubicin, Doxorubicin] | 3.91 ± 0.4 |  |  | 
